# According to patent publication US9375457B2, “Composition comprising Rhizoma coptidis, Cortex phellodendri and Fructus gardeniae and for treating neurodegenerative diseases” (Hong Kong Baptist University, priority 2013, dated 2016):
# Columns and labels:
# [1] = system: APP processing (sAPPs, F1-APP, pAPPThr668, CTFs) in brain of TgCRND8 mice; assay: Western blot of APP metabolic products in brain fractions of TgCRND8 mice; format: in vivo; details: oral, 25 mg/kg per day
# Description: All animal handling experiments were approved by the Hong Kong Baptist University Committee on the Use of Human and Animal Subjects in Teaching and Research (HASC, approval #: 12-13/0030). TgCRND8 mice expressing human APP with Swedish (K670N/M671L) and Indiana (V717F) mutations were used to evaluate the effect of baicalein on Aβ. Heterozygous TgCRND8 mice on a C57BL/6J background were used to breed a colony of experimental animals. The TgCRND8 mouse is an early onset model of AD with visible Aβ deposits in the brains of the animals starting from 3 months of age as described in Chishti M A, Yang D S, Janus C, Phinney A L, Home P, Pearson J, Strome R, Zuker N, Loukides J, French J, Turner S, Lozza G, Grilli M, Kunicki S, Morissette C, Paquette J, Gervais F, Bergeron C, Fraser P E, Carlson G A, George-Hyslop P S, Westaway D. (2001) Early-onset amyloid deposition and cognitive deficits in transgenic mice expressing a double mutant form of amyloid precursor protein 695. J Biol Chem 276: 21562-21570. The animals are housed in a controlled environment under a 12/12 hours light/dark cycle. They are allowed free access to food and water. The oral administration of baicalein (25 mg/kg/d) is commenced at 2 months of age and ended at 5 months before being killed. A single dose (25 mg/kg/d) of baicalein is tested in animal study as no difference in baicalein levels in the brain between doses of 25 and 50 mg/kg/d is found in our pilot study. Control mice orally gavaged with tap water only for the same administration period. At the conclusion of the treatment period, mice were deeply anesthetized by chloral hydrate and perfused with phosphate buffered saline (PBS). The brains were then dissected and processed for Aβ immunostaining
# To detect differences in the level of APP metabolic products among treatment groups, the levels of Aβ, F1-APP, pAPPThr668, CTFs, sAPPα and sAPPβ-sw are measured after a 3-step sequential extraction using Tris buffered saline (TBS) (pH 7.4), 1% Triton X-100/TBS (TBSX) and formic acid (FA) methods as described in Youmans K L, Leung S, Zhang J, Maus E, Baysac K, Bu G, Vassar R, Yu C, LaDu M J. (2011) Amyloid-β42 alters apolipoprotein E solubility in brains of mice with five familial AD mutations. J Neurosci Methods 196: 51-59. All extraction buffers also contained protease and phosphatase inhibitor cocktail (Roche Diagnostics, Basel, Switzerland). Snap frozen tissue is homogenized in 15 volumes (w/v) of TBS homogenization buffer and centrifuged at 100,000×g for 1 h at 4° C. using a Type 70 Ti rotor in an Optima™ L-80XP Ultracentrifuge (Beckman Coulter, Fla., USA). The TBS-soluble fraction is aliquoted, frozen in liquid nitrogen and stored at −80° C. The pellets are resuspended in 15 volumes of TBSX and kept on ice for 30 minutes, followed by a second centrifugation at 100,000×g for 1 hour at 4° C. The TBSX soluble fraction is aliquoted, frozen and stored as for the TBS fraction. The TBSX-insoluble pellet is resuspended in 2 mL of 70% FA and centrifuged at 100,000×g at 4° C. for 1 hour. The FA extracts are neutralized by the addition of 20 volumes of 1 M Tris pH 11, aliquoted and stored at −80° C. Total protein content in TBS- and TBSX-extracts is determined via BCA assay. Total protein in FA-extracts is determined by Bradford Protein Microassay (Bio-Rad, CA, USA). […]
# N2a-SwedAPP cells = assay: MTT viability assay in N2a-SwedAPP cells; format: cell-based, murine; details: mouse, 48 h
# Method: N2a-SwedAPP cells were obtained from Dr. Gopal Thinakaran (University of Chicago, Chicago, Ill., USA). N2a-SwedAPP cells were cultured in Dulbecco's modified Eagle's medium (DMEM) and OPTI-MEM medium in a 1:1 ratio with 5% FBS, 50 μg/mL penicillin, 50 μg/mL streptomycin and 200 μg/mL G418 as previously described in Thinakaran G, Teplow D B, Siman R, Greenberg B, Sisodia S S (1996) Metabolism of the “Swedish” amyloid precursor protein variant in neuro2a (N2a) cells. J Biol Chem 271: 9390-9397. N2a-SwedAPP cells were incubated at 37° C. in a 5% CO2/95% humidity incubator. Cells were seeded 24 hours prior to the treatments. When growth reached close to 90% of confluence, cells were transferred into DMEM with 1% FBS for loading extracts. The final concentration of DMSO in all experiments was 0.1%, and this concentration caused no cytotoxicity.
# For the viability assay, N2a-SwedAPP cells were seeded in a 96-well plate (7000 cells/well and 5000 cells/well). […] Finally, optical intensity was measured using a BioRad plate reader at 570 nm and a reference of 620 nm. […]
# N2a-SwedishAPP cells are widely used as a cellular model of Alzheimer's disease, because they express a high level of APP and Aβ. The effects of HLJDT and its components on viability of N2SwedAPP cells are monitored by using the MTT assay. […]
smiles,measurement,setting,value
O=c1cc(-c2ccccc2)oc2cc(O)c(O)c(O)c12 [baicalein],increase in sAPPα signal intensity in brain,[1]; TBS fraction,44%
same,increase in sAPPβ-sw signal intensity in brain,[1]; TBS fraction,35%
same,increase in level of CTFs in brain,[1]; TBSX fraction,40%
same,increase in level of F1-APP in brain,[1]; TBSX fraction,30%
same,increase in level of pAPP in brain,[1]; TBSX fraction,41%
same,non-toxic concentration (highest concentration that shows greater than 90% cell viability),N2a-SwedAPP cells,12.5 µM
